{
  "source": "patent US9341616B2",
  "about": "“Sweet taste receptor chimeric proteins and use thereof” (AJINOMOTO CO., INC., priority 2014, dated 2016)",
  "note": "Residues, ends and D or L forms follow the SMILES beside them.",
  "data": [
    {"molecular_target": "hT1R2/T1R3mosaicB (UniProt Q8TE23+Q925D8, A558R/A588V/A645S/A698V/A702T/A793V/A807V/A88D/C582S/C678S/E725V/F541I/F612A/F622V/F695L/F71L/G86K/H728R/I152V/I617V/I706V/I740A/I803L/K555R/K565R/K818R/K827G/L151M/L560F/L684P/L68N/L72W/L735F/L823M/L825Q/M644L/M744T/M74L/N547G/N675D/P545F/P561R/P564S/P67S/Q123R/Q550E/Q611L/Q757R/Q795R/Q831P/R632Q/S112P/S124D/S576L/S595F/S610P/S635P/S637R/S679G/S717H/T109A/T542A/T663I/T694M/T813A/V120A/V573A/V584A/V718M/V723A/V729T/V738A/V805L/V812A/V821L/W599R/W676R/W824R/Y680C/Y794L)", "sequence (Q8TE23 20-839, stated change not applied)": "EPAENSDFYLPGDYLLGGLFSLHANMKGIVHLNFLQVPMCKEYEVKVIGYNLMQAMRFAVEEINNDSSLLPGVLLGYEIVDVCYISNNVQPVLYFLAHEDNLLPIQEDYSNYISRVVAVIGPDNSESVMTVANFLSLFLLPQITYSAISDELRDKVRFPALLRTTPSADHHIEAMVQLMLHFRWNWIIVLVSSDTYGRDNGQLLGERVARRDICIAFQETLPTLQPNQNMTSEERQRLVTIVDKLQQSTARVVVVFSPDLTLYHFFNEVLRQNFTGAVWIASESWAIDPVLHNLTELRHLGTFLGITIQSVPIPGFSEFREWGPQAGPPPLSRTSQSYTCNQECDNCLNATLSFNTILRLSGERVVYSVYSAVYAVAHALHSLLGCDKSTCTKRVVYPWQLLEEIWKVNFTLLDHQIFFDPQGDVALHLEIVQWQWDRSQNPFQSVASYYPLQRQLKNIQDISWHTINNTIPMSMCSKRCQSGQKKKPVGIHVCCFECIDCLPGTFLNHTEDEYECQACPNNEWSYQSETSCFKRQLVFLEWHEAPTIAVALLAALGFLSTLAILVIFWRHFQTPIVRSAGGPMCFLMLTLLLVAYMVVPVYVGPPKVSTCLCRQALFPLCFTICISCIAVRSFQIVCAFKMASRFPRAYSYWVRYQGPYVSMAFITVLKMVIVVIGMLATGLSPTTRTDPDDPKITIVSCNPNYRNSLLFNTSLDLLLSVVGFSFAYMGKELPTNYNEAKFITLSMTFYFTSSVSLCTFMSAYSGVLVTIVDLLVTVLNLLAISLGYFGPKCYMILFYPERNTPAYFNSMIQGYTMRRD", "sequence (Q925D8 with tags, fused parts or gaps with the stated changes limits assumed)": "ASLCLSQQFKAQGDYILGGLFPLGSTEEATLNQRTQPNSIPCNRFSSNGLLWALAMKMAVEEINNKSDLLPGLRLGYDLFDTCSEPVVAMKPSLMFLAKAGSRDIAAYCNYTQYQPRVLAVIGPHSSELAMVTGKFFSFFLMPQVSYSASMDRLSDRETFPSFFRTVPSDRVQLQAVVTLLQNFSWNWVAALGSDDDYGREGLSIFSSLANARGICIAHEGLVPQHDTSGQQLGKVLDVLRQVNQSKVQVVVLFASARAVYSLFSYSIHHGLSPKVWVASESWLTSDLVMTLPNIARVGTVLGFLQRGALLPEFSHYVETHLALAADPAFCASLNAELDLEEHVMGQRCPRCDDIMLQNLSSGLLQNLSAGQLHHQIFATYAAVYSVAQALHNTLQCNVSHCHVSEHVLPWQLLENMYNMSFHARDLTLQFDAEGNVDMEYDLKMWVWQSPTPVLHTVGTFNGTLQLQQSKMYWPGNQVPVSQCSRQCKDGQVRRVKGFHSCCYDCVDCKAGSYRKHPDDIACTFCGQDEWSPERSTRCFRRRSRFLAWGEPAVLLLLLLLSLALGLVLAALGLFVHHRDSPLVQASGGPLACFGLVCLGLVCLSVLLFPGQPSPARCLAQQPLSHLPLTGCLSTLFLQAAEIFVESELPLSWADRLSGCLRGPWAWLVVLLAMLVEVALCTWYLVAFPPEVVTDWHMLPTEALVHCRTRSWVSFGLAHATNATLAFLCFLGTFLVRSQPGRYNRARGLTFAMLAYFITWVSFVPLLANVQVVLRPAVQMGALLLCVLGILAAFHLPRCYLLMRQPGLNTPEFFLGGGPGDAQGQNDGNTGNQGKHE", "details": "Table 6; genes hT2/T1R3mB (hT1R2, T1R3mB); HEK293E cells", "experimental": "The HEK293E cells maintained by using the DMEM/Ham's F-12 medium (Nakarai Tesque) containing 10% fetal bovine serum ([…]) and 1% Pen Strep (GIBCO) were washed with D-PBS(−) (Nakarai Tesque), and collected from the flask by using 0.25% Trypsin EDTA (GIBCO). The cells were centrifuged (1,200 rpm, 3 minutes), and after the supernatant was removed, suspended in 5% FBS DMEM/Ham's F-12 at a density of 0.75×10^7 cell/ml. This suspension (10 ml) was put into a […] (IWAKI), and culture was performed overnight (37° C., 5% CO2). On the next day, the medium was exchanged with Opti-MEM (30 ml, Invitrogen, Life Technologies), a sweet taste receptor gene mixture (Gα15-trans48LD gene, various kinds of T1R2 chimeric genes, and various kinds of T1R3 chimeric genes, 63.8 μg in total) prepared by using Opti-MEM and Lipofectamin 2000 (Invitrogen, Life Technologies) was slowly added to the cell suspension, and incubation was performed (37° C., 5% CO2) for 6 hours to attain gene transfer.\nAfter the gene transfer, the cells were washed with D-PBS(−), then removed from the flask by using 0.25% Trypsin EDTA (GIBCO), and collected. After the cell number was counted, the cells were suspended in the 5% FBS DMEM medium (2.78 mM glucose, GIBCO) at a density of 0.5×10^6 cell/ml. This cell suspension was put into wells of D-Lysine coat 96-well plate (BD bioscience) in such a volume that the cell count is 7.0×10^4 cells/well, and the cells were cultured overnight.\nAfter the culture, all the medium of the 96 wells were discarded. 200 μl of the staining solution for measurement of intracellular calcium ion′ Calcium Assay Kit Express (Molecular Device), diluted 80 times with an assay buffer (20 mM HEPES, 146 mM NaCl, 1 mM MgSO4, 1.39 mM glucose, 1 mM CaC12, 2.5 mM Probenecid, 0.05% bovine serum albumin) was added to each well, and the plate was left standing at 37° C. for 30 minutes and at room temperature for 45 minutes to perform staining. After the staining, 50 μl of a solution of stimulant (sweet taste substance) prepared with the assay buffer was added to each well, and the fluorescence value was measured for 120 seconds after the stimulation by using FDSSμEELL (Hamamatsu Photonics). By measuring the fluorescence value (Ex. 480 nm, Em. 540 nm) before and after the stimulation, the change of the intracellular free calcium ion concentration caused by addition of the stimulant via a sweet taste receptor was quantitatively investigated. The measurement and analysis of the fluorescence value was performed by using the software attached to FDSSμEELL (FDSS7000EX), and ΔF/F value was calculated in accordance with the following equation, and used for the evaluation. ΔF/F=(Maximum fluorescence value after stimulation−Minimum fluorescence value after stimulation)/(Fluorescence value before stimulation)\nFurthermore, by using the ΔF/F values obtained when each sweet taste substance was added, the S/N ratio was calculated. Specifically, the S/N value was calculated by using the minimum value of ΔF/F obtained when each substance was added at various concentrations as noise (N) value, and the similarly obtained maximum value of ΔF/F as the signal (S) value, and used as an index for sensitivity of the measurement of the activity of each receptor. That is, a higher S/N value means a higher sensitivity for detection of an interaction of a sweet taste receptor and a test substance, which makes it easier to detect stimulation with a sweet taste substance or sweet taste-regulating substance of a lower concentration.\nThe sweet taste substances used as the stimulating substance are acesulfame potassium (Tokyo Kasei Kogyo), sodium saccharin (WAKO), sucralose (SIGMA), sucrose (WAKO), and neotame (SIGMA), as well as aspartame, advantame, and SC-45647 ([3-[(S)-1-phenylethyl]-2-(4-cyanophenyl)guanidino]acetic acid, which were all synthesized in-house.", "values": [
      {"smiles": "COC(=O)[C@H](Cc1ccccc1)NC(=O)[C@H](CC(=O)O)NCCC(C)(C)C", "note": "[Neotame, neotame]", "S/N": 6.0},
      {"smiles": "COC(=O)[C@H](Cc1ccccc1)NC(=O)[C@H](CC(=O)O)NCCCc1ccc(OC)c(O)c1", "note": "[Advantame, advantame]", "S/N": 8.5},
      {"smiles": "OC[C@H]1O[C@@](CO)(O[C@H]2O[C@H](CO)[C@@H](O)[C@H](O)[C@H]2O)[C@@H](O)[C@@H]1O", "note": "[Sucrose, sucrose]", "S/N": 4.7},
      {"smiles": "COC(=O)[C@H](Cc1ccccc1)NC(=O)[C@@H](N)CC(=O)O", "note": "[Aspartame, aspartame] (HELM PEPTIDE1{D.F.[CO[*:1]]}$$$$V2.0)", "S/N": 5.4},
      {"smiles": "O=C1NS(=O)(=O)c2ccccc21.[Na]", "note": "[Saccharin Na, sodium saccharin]", "S/N": 5.4},
      {"smiles": "C[C@H](NC(=Nc1ccc(C#N)cc1)NCC(=O)O)c1ccccc1", "note": "[SC-45647, [3-[(S)-1-phenylethyl]-2-(4-cyanophenyl)guanidino]acetic acid]", "S/N": 7.0},
      {"smiles": "OC[C@H]1O[C@H](O[C@]2(CCl)O[C@H](CCl)[C@@H](O)[C@@H]2O)[C@H](O)[C@@H](O)[C@H]1Cl", "note": "[Sucralose, sucralose]", "S/N": 4.1},
      {"smiles": "COc1ccc(CCC(=O)c2c(O)cc(O[C@@H]3O[C@H](CO)[C@@H](O)[C@H](O)[C@H]3O[C@@H]3O[C@@H](C)[C@H](O)[C@@H](O)[C@H]3O)cc2O)cc1O", "note": "[NHDC, neohesperidin dihydrochalcone]", "S/N": 4.8},
      {"smiles": "CC1=CC(=O)NS(=O)(=O)O1", "note": "[Acesulfame K, acesulfame potassium]", "S/N": 5.5}
    ]}
  ]
}
